# Test results from patent US20060140863A1, “Production of a dye agent for colouring cells in the human or animal body” (Fluoron GMBH, priority 2002, published 2006).
# Where two headings read alike, the source gives them in different places.
# What was measured:
# [1] = Cytotoxicity, general statement; format: cell-based; conditions: biocompatible solution according to the invention, in comparison with trypan blue
# Excerpt: Trypan blue is a cytotoxic substance, as is known for example from Solomon K D et al: Protective effect of the anterior lens capsule during extra capsular cataract extraction, OPHTHALMOLOGY, Vol 96, No 5, May 1989, 591-597, and Veckener M et al: Ocular toxicity study of trypan blue injected into the vitreous cavity of rabbit eyes, Graefe's Arch. Clin. Ex. Ophthalmol. (2002) 239:698-704. When using trypan blue therefore complete flushing out in particular of the region of the eye in which the trypan blue was used as a dye agent is required immediately after the cataract operation in order to prevent it from remaining in the body or in the eye for a prolonged period of time.
# ARPE-19-cells = experiment: Cytotoxicity by protein content of treated cell cultures vs untreated controls (growth inhibition); format: cell-based; conditions: differing levels of concentration, 68 to 72 hours in an incubator, protein content vs untreated control
# Excerpt: (§1) The vitality of the cells and a deduced cytotoxicity is quantitatively determined by determining the protein content of the treated cell cultures in comparison with untreated control cultures. The protein content is ascertained by a colorimetric procedure with a standard process.
# (§2) It is found in this respect that cytotoxicity of a significant level corresponding to growth inhibition of more than 30% is not present.
# mouse cells L 929 = experiment: as above; format: cell-based; conditions: L 929 cells, differing levels of concentration, 68 to 72 hours in an incubator, protein content vs untreated control
# Excerpt: as §1, §2
# [2] = Cahen 1964 and BLURHEX product information; cited from earlier work
# [3] = known from Solomon et al 1989 and Veckener et al 2002 (rabbit eyes); cited from earlier work
Compound,cytotoxicity [1],growth inhibition (cytotoxicity of a significant level = more than 30%) (ARPE-19-cells) [%],growth inhibition (cytotoxicity of a significant level = more than 30%) (mouse cells L 929) [%],teratogenic or mutagenic action [2],cytotoxicity [3]
brilliant blue R,does not have any cytotoxicity,–,–,–,–
CCN(CC)c1ccc(C(=C2C=CC(=[N+](CC)CC)C=C2)c2cc(O)c(S(=O)(=O)[O-])cc2S(=O)(=O)[O-])cc1.CCN(CC)c1ccc(C(=C2C=CC(=[N+](CC)CC)C=C2)c2cc(O)c(S(=O)(=O)[O-])cc2S(=O)(=O)[O-])cc1.[Ca+2] [patent blue V],does not have any cytotoxicity,≤ 30,≤ 30,–,–
"Cc1cc(-c2ccc(/N=N/c3c(S(=O)(=O)O)cc4cc(S(=O)(=O)O)cc(N)c4c3O)c(C)c2)ccc1/N=N/c1c(S(=O)(=O)O)cc2cc(S(=O)(=O)O)cc(N)c2c1O [Trypan blue, trypan blue]",–,–,–,teratogenic or mutagenic action,cytotoxic
